The test concerns the target Cdk9/cyclinT1 (Homo sapiens, UniProt P50750). The test is described as follows: Cdk9/cyclinT1 IMAP Protocol (fluorescence polarization kinase assay). Particulars: Cdk9_cyclinT1_IC50, Table V; generated using one of the two Cdk9/cyclinT1 assays (IMAP or Alpha Screen), not stated which; ATP 6 uM.

The term IC50 denotes the midpoint of a concentration-inhibition curve. A lower IC50 goes with greater potency.

Sequence of Cdk9/cyclinT1 (P50750 whole entry): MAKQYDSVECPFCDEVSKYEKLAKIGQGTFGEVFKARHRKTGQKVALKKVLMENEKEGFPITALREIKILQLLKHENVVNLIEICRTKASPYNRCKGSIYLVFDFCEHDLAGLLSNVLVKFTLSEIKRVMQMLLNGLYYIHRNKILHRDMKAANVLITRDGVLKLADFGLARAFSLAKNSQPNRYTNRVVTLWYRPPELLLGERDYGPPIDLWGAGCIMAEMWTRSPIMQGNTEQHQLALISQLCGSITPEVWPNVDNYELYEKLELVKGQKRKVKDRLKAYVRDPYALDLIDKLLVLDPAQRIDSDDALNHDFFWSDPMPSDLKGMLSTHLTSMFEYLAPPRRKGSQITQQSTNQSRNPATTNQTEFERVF
Sequence of Cdk9/cyclinT1 (O60563 whole entry partner): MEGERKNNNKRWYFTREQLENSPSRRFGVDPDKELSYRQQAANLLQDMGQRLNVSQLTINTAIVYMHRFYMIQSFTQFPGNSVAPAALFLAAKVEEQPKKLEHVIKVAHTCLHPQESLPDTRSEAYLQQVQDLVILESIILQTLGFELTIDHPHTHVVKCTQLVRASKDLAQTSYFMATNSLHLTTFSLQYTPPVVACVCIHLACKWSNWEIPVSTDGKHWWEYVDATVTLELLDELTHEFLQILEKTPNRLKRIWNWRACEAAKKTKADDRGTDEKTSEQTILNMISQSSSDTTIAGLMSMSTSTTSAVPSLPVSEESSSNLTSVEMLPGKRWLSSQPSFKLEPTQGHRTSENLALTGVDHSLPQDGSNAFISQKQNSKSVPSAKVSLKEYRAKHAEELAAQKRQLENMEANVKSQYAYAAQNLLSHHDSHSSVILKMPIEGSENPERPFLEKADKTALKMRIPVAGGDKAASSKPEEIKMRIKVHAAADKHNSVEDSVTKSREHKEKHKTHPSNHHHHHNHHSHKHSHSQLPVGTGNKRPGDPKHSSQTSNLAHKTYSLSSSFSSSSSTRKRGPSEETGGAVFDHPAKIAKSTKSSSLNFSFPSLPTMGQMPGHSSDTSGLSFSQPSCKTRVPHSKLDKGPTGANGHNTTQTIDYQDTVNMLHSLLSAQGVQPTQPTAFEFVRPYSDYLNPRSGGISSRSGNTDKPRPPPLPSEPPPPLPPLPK

In turn, `O=C(Nc1cc(-c2nc(NCC3CCOCC3)ccc2F)c(Cl)cn1)[C@@H]1CCCNC1` [Example 157, (R)-Piperidine-3-carboxylic acid {5′-chloro-3-fluoro-6-[(tetrahydro-pyran-4-ylmethyl)-amino]-[2,4′]bipyridinyl-2′-yl}-amide] returned a half-inhibitory concentration (IC50) of 1 nM. With `O=C(Nc1cc(-c2nc(NCC3CCOCC3)ccc2F)c(Cl)cn1)[C@H]1CNCCO1` [Example 158, (R)-Morpholine-2-carboxylic acid {5′-chloro-3-fluoro-6-[(tetrahydro-pyran-4-ylmethyl)-amino]-[2,4′]bipyridinyl-2′-yl}-amide] the figure was 5 nM; with `C[C@@H]1CC(CNc2cccc(-c3cc(NC(=O)[C@@H]4CCCNC4)ncc3Cl)n2)C[C@H](C)O1` (stereo partly drawn) [Example 159, (R)-Piperidine-3-carboxylic acid {5′-chloro-6-[((2R,6S)-2,6-dimethyl-tetrahydro-pyran-4-ylmethyl)-amino]-[2,4′]bipyridinyl-2′-yl}-amide], 1 nM; with `O=C(Nc1cc(-c2nc(NCC3CCOCC3)ccc2Cl)ccn1)[C@@H]1CCCNC1` [Example 167, (R)-Piperidine-3-carboxylic acid {3-chloro-6-[(tetrahydro-pyran-4-ylmethyl)-amino]-[2,4′]bipyridinyl-2′-yl}-amide], 4 nM. `O=C(Nc1cc(-c2cccc(NCC3CCOCC3)n2)c(Cl)cn1)C1CNCC(F)C1` (centres unmarked) [Example 168, 5-Fluoro-piperidine-3-carboxylic acid {5′-chloro-6-[(tetrahydro-pyran-4-ylmethyl)-amino]-[2,4′]bipyridinyl-2′-yl}-amide]: the IC50 came to 6 nM. Under `C[C@@H]1CC(CNc2cccc(-c3cc(NC(=O)[C@H]4CNCCO4)ncc3Cl)n2)C[C@H](C)O1` (stereo partly drawn) [Example 169, (R)-Morpholine-2-carboxylic acid {5′-chloro-6-[((2R,6S)-2,6-dimethyl-tetrahydro-pyran-4-ylmethyl)-amino]-[2,4′]bipyridinyl-2′-yl}-amide] stands 16 nM; under `C[C@@H]1CC(CNc2cccc(-c3cc(NC(=O)[C@@H]4CCNC4)ncc3Cl)n2)C[C@H](C)O1` (stereo partly drawn) [Example 170, (R)-Pyrrolidine-3-carboxylic acid {5′-chloro-6-[((2R,6S)-2,6-dimethyl-tetrahydro-pyran-4-ylmethyl)-amino]-[2,4′]bipyridinyl-2′-yl}-amide], 1 nM. On to `CO[C@H]1CNC[C@@H]1C(=O)Nc1cc(-c2cccc(NCC3C[C@@H](C)O[C@@H](C)C3)n2)c(Cl)cn1` (stereo partly drawn) [Example 171, (3S,4R)-4-Methoxy-pyrrolidine-3-carboxylic acid {5′-chloro-6-[((2R,6S)-2,6-dimethyl-tetrahydro-pyran-4-ylmethyl)-amino]-[2,4′]bipyridinyl-2′-yl}-amide], for which 1 nM corresponded to half-maximal inhibition (IC50). Under `O=C(Nc1cc(-c2cccc(NCC3CCOCC3)n2)c(Cl)cn1)[C@@H]1CNC[C@H](F)C1` [Example 176, (3S,5R)-5-Fluoro-piperidine-3-carboxylic acid {5′-chloro-6-[(tetrahydro-pyran-4-ylmethyl)-amino]-[2,4′]bipyridinyl-2′-yl}-amide] stands 23 nM; under `O=C(Nc1cc(-c2cccc(NCC3CCOCC3)n2)c(Cl)cn1)[C@H]1CNC[C@@H](F)C1` [Example 177, (3R,5S)-5-Fluoro-piperidine-3-carboxylic acid {5′-chloro-6-[(tetrahydro-pyran-4-ylmethyl)-amino]-[2,4′]bipyridinyl-2′-yl}-amide], 5 nM; under `O=C(Nc1cc(-c2cccc(NCC3CCOCC3)n2)c(Cl)cn1)[C@@H]1CN[C@H](CF)C1` [Example 178, (3S,5S)-5-Fluoromethyl-pyrrolidine-3-carboxylic acid {5′-chloro-6-[(tetrahydro-pyran-4-ylmethyl)-amino]-[2,4′]bipyridinyl-2′-yl}-amide], 1 nM.

As to `O=C(Nc1cc(-c2cccc(NCC3CCOCC3)n2)c(Cl)cn1)[C@H]1CN[C@@H](CF)C1` [Example 179, (3R,5R)-5-Fluoromethyl-pyrrolidine-3-carboxylic acid {5′-chloro-6-[(tetrahydro-pyran-4-ylmethyl)-amino]-[2,4′]bipyridinyl-2′-yl}-amide], the half-maximal inhibitory concentration (IC50) amounted to 7 nM.

For the molecule `[2H]C([2H])(Nc1cccc(-c2cc(NC(=O)[C@H]3CNCCO3)ncc2Cl)n1)C1CCOCC1` [Example 180, (R)-Morpholine-2-carboxylic acid {5′-chloro-6-[(tetrahydro-pyran-4-yl(dideuteromethyl))-amino]-[2,4′]bipyridinyl-2′-yl}-amide], it took 20 nM to reach half-maximal inhibition (IC50).

`CO[C@H]1CNC[C@@H]1C(=O)Nc1cc(-c2nc(NCC3CCOCC3)c(F)cc2Cl)c(Cl)cn1` [Example 181, (3S,4R)-4-Methoxy-pyrrolidine-3-carboxylic acid {3,5′-dichloro-5-fluoro-6-[(tetrahydro-pyran-4-ylmethyl)-amino]-[2,4′]bipyridinyl-2′-yl}-amide] showed a concentration for half-maximal inhibition (IC50) of 1 nM.

The molecule `COC[C@@H]1C[C@@H](C(=O)Nc2cc(-c3nc(NCC4CCOCC4)ccc3Cl)c(Cl)cn2)CN1` [Example 185, (3R,5S)-5-Methoxymethyl-pyrrolidine-3-carboxylic acid {3,5′-dichloro-6-[(tetrahydro-pyran-4-ylmethyl)-amino]-[2,4′]bipyridinyl-2′-yl}-amide] had an IC50 of 1 nM. With `COC[C@@H]1C[C@@H](C(=O)Nc2cc(-c3nc(NCC4CCOC(C)(C)C4)ccc3Cl)c(Cl)cn2)CN1` (stereo partly drawn) [Example 186, (3R,5S)-5-Methoxymethyl-pyrrolidine-3-carboxylic acid {3,5′-dichloro-6-[(2,2-dimethyl-tetrahydro-pyran-4-ylmethyl)-amino]-[2,4′]bipyridinyl-2′-yl}-amide] the figure was 1 nM; with `O=C(Nc1cc(-c2cccc(NCC3CCOCC3)n2)c(Cl)cn1)C1CNCCOC1` (centres unmarked) [Example 187, [1,4]Oxazepane-6-carboxylic acid {5′-chloro-6-[(tetrahydro-pyran-4-ylmethyl)-amino]-[2,4′]bipyridinyl-2′-yl}-amide], 3 nM.

`CC1(C)CC(CNc2cccc(-c3cc(NC(=O)[C@@H]4CCNC4)ncc3Cl)n2)CCO1` (stereo partly drawn) [Example 188, (R)-Pyrrolidine-3-carboxylic acid {5′-chloro-6-[(2,2-dimethyl-tetrahydro-pyran-4-ylmethyl)-amino]-[2,4′]bipyridinyl-2′-yl}-amide] had a concentration for half-maximal inhibition (IC50) of 1 nM. Under `O=C(Nc1cc(-c2nc(NCC3CCOCC3)ccc2Cl)c(Cl)cn1)C1CNCCOC1` (centres unmarked) [Example 191, [1,4]Oxazepane-6-carboxylic acid {3,5′-dichloro-6-[(tetrahydro-pyran-4-ylmethyl)-amino]-[2,4′]bipyridinyl-2′-yl}-amide] stands 1 nM; under `COC1(CNc2ccc(Cl)c(-c3cc(NC(=O)[C@@H]4CCCNC4)ncc3Cl)n2)CCOCC1` [Example 192, (R)-Piperidine-3-carboxylic acid {3,5′-dichloro-6-[(4-methoxy-tetrahydro-pyran-4-ylmethyl)-amino]-[2,4′]bipyridinyl-2′-yl}-amide], 1 nM. With `O=C(Nc1cc(-c2cccc(NCC3CCOCC3)n2)c(Cl)cn1)C1CCCCNC1` (centres unmarked) [Example 193, Azepane-3-carboxylic acid {5′-chloro-6-[(tetrahydro-pyran-4-ylmethyl)-amino]-[2,4′]bipyridinyl-2′-yl}-amide] the figure was 2 nM; with `O=C(Nc1cc(-c2nc(NCC3CCOCC3)ccc2Cl)c(Cl)cn1)C1CCCCNC1` (centres unmarked) [Example 194, Azepane-3-carboxylic acid {3,5′-dichloro-6-[(tetrahydro-pyran-4-ylmethyl)-amino]-[2,4′]bipyridinyl-2′-yl}-amide], 1 nM. With `CC1(C)CCC(C(=O)Nc2cc(-c3cccc(NCC4CCOCC4)n3)ccn2)CN1` (centres unmarked) [Example 195, 6,6-Dimethyl-N-(6-(((tetrahydro-2H-pyran-4-yl)methyl)amino)-2,4′-bipyridin-2′-yl)piperidine-3-carboxamide] the figure was 2 nM; with `CC1(C)CC(CNc2nc(-c3cc(NC(=O)[C@@H]4CCCNC4)ncc3Cl)ccc2F)CCO1` (stereo partly drawn) [Example 198, (R)-Piperidine-3-carboxylic acid {5′-chloro-6-[(2,2-dimethyl-tetrahydro-pyran-4-ylmethyl)-amino]-5-fluoro-[2,4′]bipyridinyl-2′-yl}-amide], 1 nM; with `CN1CCCCC(C(=O)Nc2cc(-c3cccc(NCC4CCOCC4)n3)c(Cl)cn2)C1` (centres unmarked) [Example 199, 1-Methyl-azepane-3-carboxylic acid {5′-chloro-6-[(tetrahydro-pyran-4-ylmethyl)-amino]-[2,4′]bipyridinyl-2′-yl}-amide], 51 nM. In turn, `CN1CCCCC(C(=O)Nc2cc(-c3nc(NCC4CCOCC4)ccc3Cl)c(Cl)cn2)C1` (centres unmarked) [Example 200, 1-Methyl-azepane-3-carboxylic acid {3,5′-dichloro-6-[(tetrahydro-pyran-4-ylmethyl)-amino]-[2,4′]bipyridinyl-2′-yl}-amide] registered an IC50 of 31 nM. The molecule `O=C(Nc1cc(-c2ccc(F)c(NCC3CCOCC3)n2)c(Cl)cn1)C1CNCCOC1` (centres unmarked) [Example 201, [1,4]Oxazepane-6-carboxylic acid {5′-chloro-5-fluoro-6-[(tetrahydro-pyran-4-ylmethyl)-amino]-[2,4′]bipyridinyl-2′-yl}-amide] yielded an IC50 of 1 nM.

In the case of `CC1(C)CC(CNc2cccc(-c3cc(NC(=O)C4CNCCOC4)ncc3Cl)n2)CCO1` (centres unmarked) [Example 202, [1,4]Oxazepane-6-carboxylic acid {5′-chloro-6-[(2,2-dimethyl-tetrahydro-pyran-4-ylmethyl)-amino]-[2,4′]bipyridinyl-2′-yl}-amide], the IC50 was determined as 2 nM. Molecule `C[C@@H]1CC(CNc2cccc(-c3cc(NC(=O)C4CNCCOC4)ncc3Cl)n2)C[C@H](C)O1` (stereo partly drawn) [Example 203, [1,4]Oxazepane-6-carboxylic acid {5′-chloro-6-[((2R,6S)-2,6-dimethyl-tetrahydro-pyran-4-ylmethyl)-amino]-[2,4′]bipyridinyl-2′-yl}-amide] returned a half-maximal inhibitory concentration (IC50) of 3 nM.
